13 molecules from US9938261B2, “Heterocyclic compounds and methods of use thereof” (AMBIT BIOSCIENCES CORPORATION, priority 2011, dated 2018) can be followed below.

Structures can show the parent of a compound that is named as a salt. Where two headings read alike, the source gives them in different places.

One assay deals with T1, KIT (Homo sapiens, UniProt P10721).
T1 construct: made in house
The experiment in a line: Competition binding assay, KIT Kd. The procedure, abridged: (§1)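 Phage-fused or HEK-293/DNA-tagged kinase + ligand-coated streptavidin beads + compound, 1 h RT with shaking. Wash, elute with free ligand 30 min RT, qPCR of eluted kinase. Kd: 11-point 3-fold series.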

For another assay, the target named is T2, PDGFRβ (Homo sapiens, UniProt P09619).
T2 construct: made in house
T2 sequence (P09619 33-1106): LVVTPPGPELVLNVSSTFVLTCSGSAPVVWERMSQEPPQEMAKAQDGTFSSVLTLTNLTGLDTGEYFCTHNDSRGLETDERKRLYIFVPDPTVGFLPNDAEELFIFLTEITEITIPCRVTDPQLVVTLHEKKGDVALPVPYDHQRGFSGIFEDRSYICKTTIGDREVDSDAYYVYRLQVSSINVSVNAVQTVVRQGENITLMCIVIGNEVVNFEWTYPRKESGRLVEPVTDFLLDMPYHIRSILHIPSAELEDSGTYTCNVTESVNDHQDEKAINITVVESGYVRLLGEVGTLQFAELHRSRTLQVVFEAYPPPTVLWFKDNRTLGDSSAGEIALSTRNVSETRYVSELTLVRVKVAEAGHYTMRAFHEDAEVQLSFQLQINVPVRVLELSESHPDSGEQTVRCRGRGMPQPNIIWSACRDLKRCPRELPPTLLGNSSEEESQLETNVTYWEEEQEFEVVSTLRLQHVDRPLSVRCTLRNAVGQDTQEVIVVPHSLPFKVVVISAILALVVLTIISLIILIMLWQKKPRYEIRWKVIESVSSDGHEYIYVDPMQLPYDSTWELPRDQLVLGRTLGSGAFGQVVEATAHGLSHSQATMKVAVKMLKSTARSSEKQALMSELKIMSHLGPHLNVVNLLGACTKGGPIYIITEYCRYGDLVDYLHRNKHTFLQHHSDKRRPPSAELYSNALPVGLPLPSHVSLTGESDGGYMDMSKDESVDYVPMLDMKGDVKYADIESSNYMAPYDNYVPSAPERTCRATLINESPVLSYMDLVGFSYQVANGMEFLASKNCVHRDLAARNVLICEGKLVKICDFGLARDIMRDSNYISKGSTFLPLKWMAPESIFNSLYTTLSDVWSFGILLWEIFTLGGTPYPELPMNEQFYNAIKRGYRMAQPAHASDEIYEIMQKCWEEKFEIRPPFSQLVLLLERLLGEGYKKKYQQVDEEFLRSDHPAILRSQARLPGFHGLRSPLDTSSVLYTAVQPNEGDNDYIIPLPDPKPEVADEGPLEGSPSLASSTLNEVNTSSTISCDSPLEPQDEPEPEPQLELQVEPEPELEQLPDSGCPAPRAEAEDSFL
The experiment in a line: Competition binding assay, PDGFRβ Kd. The essentials:
as §1

In the next assay the test system is M-NFS-60 cells. The experiment in a line: M-NFS-60 cell proliferation assay (Alamar Blue). It is filed as cell-based, mouse. The following applies: read-out: CSF1R M-NFS-60 CTB:IC50. The essentials:
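Alamar Blue reduction (3 h; 560/590 nm) measured viability after 72 h, 37 °C treatment with nine half-log compound concentrations at 0.5% DMSO. Cells: M-CSF-dependent (20 ng/mL) murine M-NFS-60 in RPMI plus 10% FBS. IC50s, averaged from duplicates, reflect half-maximal inhibition of proliferation relative to control.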

In assay [1] the target is kinase panel containing either 386 or 392 distinct kinases. In words: Kinase selectivity score S10 from competition binding panel. The essentials:
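S10 is the number of kinases with percent-of-control under 10, divided by all distinct wild-type kinases tested, from a single 10 μM concentration. Binding measured by qPCR of kinase recovered from ligand-coated beads after 1 h equilibrium at room temperature; kinases were phage fusions or DNA-tagged HEK-293 products.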

For a further assay, the target named is CSF1R (Homo sapiens, UniProt P07333). In words: Competition binding assay, CSF1R Kd. More on the design: made in house. The essentials:
as §1

[2] abbreviates: Mus musculus, M-NFS-60 cell proliferation.
Where [3] appears, read: 10 μM, panel of 386 or 392 distinct kinases.
The mark [4] stands for this setting: 72 hours incubation, M-CSF 20 ng/mL.
The mark [5] stands for this setting: compounds at 10 μM, 386 or 392 distinct kinases.

CSF1R, sequence (P07333 20-972): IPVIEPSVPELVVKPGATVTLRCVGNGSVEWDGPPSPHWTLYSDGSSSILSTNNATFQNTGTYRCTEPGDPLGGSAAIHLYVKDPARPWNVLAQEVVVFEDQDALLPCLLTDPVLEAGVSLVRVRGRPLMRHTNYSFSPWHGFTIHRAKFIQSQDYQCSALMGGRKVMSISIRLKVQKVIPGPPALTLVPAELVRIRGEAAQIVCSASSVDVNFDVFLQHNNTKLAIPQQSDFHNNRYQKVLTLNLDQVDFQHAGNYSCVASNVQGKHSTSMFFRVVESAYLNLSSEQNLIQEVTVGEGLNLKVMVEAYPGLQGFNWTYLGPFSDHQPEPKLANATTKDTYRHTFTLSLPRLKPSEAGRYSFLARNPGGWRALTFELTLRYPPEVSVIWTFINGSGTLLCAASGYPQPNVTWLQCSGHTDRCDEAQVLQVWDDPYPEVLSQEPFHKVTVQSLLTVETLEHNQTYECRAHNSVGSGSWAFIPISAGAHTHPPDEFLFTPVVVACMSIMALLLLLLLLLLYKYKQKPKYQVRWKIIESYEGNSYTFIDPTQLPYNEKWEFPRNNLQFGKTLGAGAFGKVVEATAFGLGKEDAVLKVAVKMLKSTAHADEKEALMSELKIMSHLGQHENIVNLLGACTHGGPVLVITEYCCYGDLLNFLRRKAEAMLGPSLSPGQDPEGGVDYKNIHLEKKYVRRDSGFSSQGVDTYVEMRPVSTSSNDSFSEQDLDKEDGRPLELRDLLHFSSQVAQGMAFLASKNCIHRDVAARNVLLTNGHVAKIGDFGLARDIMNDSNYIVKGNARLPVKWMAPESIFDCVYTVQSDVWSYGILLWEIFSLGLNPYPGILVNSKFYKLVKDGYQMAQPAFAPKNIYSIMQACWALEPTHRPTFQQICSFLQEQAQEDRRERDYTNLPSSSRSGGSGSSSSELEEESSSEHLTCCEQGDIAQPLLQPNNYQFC
T1 sequence (P10721 26-976): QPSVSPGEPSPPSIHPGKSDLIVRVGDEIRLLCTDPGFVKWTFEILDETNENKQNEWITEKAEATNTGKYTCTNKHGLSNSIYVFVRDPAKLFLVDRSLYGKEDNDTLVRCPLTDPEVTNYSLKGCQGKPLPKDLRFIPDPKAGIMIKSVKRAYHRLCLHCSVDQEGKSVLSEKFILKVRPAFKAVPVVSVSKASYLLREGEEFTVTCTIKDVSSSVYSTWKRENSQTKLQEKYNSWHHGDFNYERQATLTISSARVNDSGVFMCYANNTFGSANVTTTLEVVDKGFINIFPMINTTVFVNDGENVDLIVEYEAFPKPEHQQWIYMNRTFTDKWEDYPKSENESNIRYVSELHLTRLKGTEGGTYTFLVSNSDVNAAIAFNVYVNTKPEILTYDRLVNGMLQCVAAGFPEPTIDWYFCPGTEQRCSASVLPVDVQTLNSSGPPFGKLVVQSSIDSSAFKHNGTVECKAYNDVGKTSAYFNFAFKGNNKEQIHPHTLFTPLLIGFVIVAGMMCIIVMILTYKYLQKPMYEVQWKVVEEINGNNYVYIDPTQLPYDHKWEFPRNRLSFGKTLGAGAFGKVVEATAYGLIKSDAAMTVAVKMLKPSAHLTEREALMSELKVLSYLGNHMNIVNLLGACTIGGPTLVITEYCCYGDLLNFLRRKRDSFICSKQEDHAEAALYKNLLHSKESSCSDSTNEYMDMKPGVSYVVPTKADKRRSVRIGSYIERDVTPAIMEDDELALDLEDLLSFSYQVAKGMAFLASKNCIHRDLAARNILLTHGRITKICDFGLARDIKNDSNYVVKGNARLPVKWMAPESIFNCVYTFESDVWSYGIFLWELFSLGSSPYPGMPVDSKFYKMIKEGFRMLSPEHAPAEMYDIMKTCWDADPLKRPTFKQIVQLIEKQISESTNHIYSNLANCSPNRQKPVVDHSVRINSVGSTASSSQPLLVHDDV

For `O=C1CCCCN1c1ccc2c(c1)ncn2Cc1ccc2nc(N[C@@H]3CCCC[C@H]3O)sc2c1` [Example 210, 1-(1-((2-(((1R,2R)-2-hydroxycyclohexyl)amino)benzo[d]thiazol-6-yl)methyl)-1H-benzo[d]imidazol-5-yl)piperidin-2-one], the Kd at KIT (competition binding) lay in the range of 500 to 2000 nM; at PDGFRβ (competition binding), 500 to 2000 nM; at CSF1R (competition binding) it was 20 to 50 nM. In the assay on M-NFS-60 cells (setting [2]), the half-inhibitory concentration (IC50) was more than 1500 nM. Also, the “Kinase specificity S(10)” value in assay [1] (setting [3]) is “A (A≤0.01)”.

Take `O[C@@H]1CCCC[C@H]1Nc1nc2ccc(Cn3cnc4cc(-c5cc[nH]n5)ccc43)cc2s1` [Example 211, (1R,2R)-2-((6-((5-(1H-pyrazol-3-yl)-1H-benzo[d]imidazol-1-yl)methyl)benzo[d]thiazol-2-yl)amino)cyclohexanol]: the Kd on KIT (competition binding) was not above 100 nM; on PDGFRβ (competition binding), not above 50 nM; at CSF1R (competition binding), not above 5 nM. In addition, the concentration for half-maximal inhibition (IC50) in the assay with M-NFS-60 cells (setting [2]) is not above 50 nM. The “Kinase specificity S(10)” value in assay [1] (setting [3]) is “C (C>0.02)”.

Regarding `O[C@@H]1CCCC[C@H]1Nc1nc2ccc(Cn3cnc4cc(C(F)(F)F)cnc43)cc2s1` [Example 212, (1R,2R)-2-((6-((6-(trifluoromethyl)-3H-imidazo[4,5-b]pyridin-3-yl)methyl)benzo[d]thiazol-2-yl)amino)cyclohexanol], the Kd on KIT (competition binding) was not above 100 nM; on PDGFRβ (competition binding), not above 50 nM; at CSF1R (competition binding), 5 to 20 nM. In addition, the half-inhibitory concentration (IC50) in the assay on M-NFS-60 cells (setting [2]) fell in the range of 50 to 400 nM. The “Kinase specificity S(10)” value in assay [1] (setting [3]) is given as “A (A≤0.01)”.

As to `O[C@@H]1CCCC[C@H]1Nc1nc2ccc(Cc3cnc4cc(-n5ccnc5)ccn34)cc2s1` [Example 214, (1R,2R)-2-((6-((7-(1H-imidazol-1-yl)imidazo[1,2-a]pyridin-3-yl)methyl)benzo[d]thiazol-2-yl)amino)cyclohexanol], the Kd at KIT (competition binding) is 100 to 500 nM; on PDGFRβ (competition binding), 50 to 500 nM; on CSF1R (competition binding), not above 5 nM. Further, the IC50 in the assay on M-NFS-60 cells (setting [2]) was 50 to 400 nM. Moreover, the “Kinase specificity S(10)” value in assay [1] (setting [3]) is given as “B (0.01<B≤0.02)”.

In the case of `O[C@@H]1CCCC[C@H]1Nc1nc2ccc(Cc3cnc4cc(-n5nccn5)ccn34)cc2s1` [Example 215, (1R,2R)-2-((6-((7-(2H-1,2,3-triazol-2-yl)imidazo[1,2-a]pyridin-3-yl)methyl)benzo[d]thiazol-2-yl)amino)cyclohexanol], the Kd at KIT (competition binding) fell in the range of 500 to 2000 nM; on PDGFRβ (competition binding) it was 500 to 2000 nM; at CSF1R (competition binding), 5 to 20 nM. Further, the half-maximal inhibitory concentration (IC50) in the assay on M-NFS-60 cells (setting [2]) lay in the range of 50 to 400 nM. Moreover, the “Kinase specificity S(10)” value in assay [1] (setting [3]) is recorded as “A (A≤0.01)”.

Consider `C=Cc1ccn2c(Cc3ccc4nc(N[C@@H]5CCCC[C@H]5O)sc4c3)cnc2c1` [Example 216, (1R,2R)-2-((6-((7-vinylimidazo[1,2-a]pyridin-3-yl)methyl)benzo[d]thiazol-2-yl)amino)cyclohexanol], for which the equilibrium dissociation constant (Kd) on KIT (competition binding) was in the range of 500 to 2000 nM; on PDGFRβ (competition binding), 50 to 500 nM; at CSF1R (competition binding), 5 to 20 nM. For the same molecule, the 50% inhibitory concentration (IC50) with M-NFS-60 cells (setting [2]) was 50 to 400 nM. For the same molecule, the “Kinase specificity S(10)” value in assay [1] (setting [3]) was “A (A≤0.01)”.

Take `C=CCOc1ccn2c(Cc3ccc4nc(N[C@@H]5CCCC[C@H]5O)sc4c3)cnc2c1` [Example 217, (1R,2R)-2-((6-((7-(allyloxy)imidazo[1,2-a]pyridin-3-yl)methyl)benzo[d]thiazol-2-yl)amino)cyclohexanol]: the equilibrium dissociation constant (Kd) was 500 to 2000 nM on KIT (competition binding), 50 to 500 nM at PDGFRβ (competition binding) and 5 to 20 nM at CSF1R (competition binding). For the same molecule, the IC50 in the assay with M-NFS-60 cells (setting [2]) lay in the range of 50 to 400 nM. Besides, the “Kinase specificity S(10)” value in assay [1] (setting [3]) was “A (A≤0.01)”.

For `O[C@@H]1CCCC[C@H]1Nc1nc2ccc(Cc3cnc4cc(-n5ccnn5)ccn34)cc2s1` [Example 218, (1R,2R)-2-((6-((7-(1H-1,2,3-triazol-1-yl)imidazo[1,2-a]pyridin-3-yl)methyl)benzo[d]thiazol-2-yl)amino)cyclohexanol], the Kd lay in the range of 500 to 2000 nM at KIT (competition binding), 50 to 500 nM at PDGFRβ (competition binding) and 5 to 20 nM at CSF1R (competition binding). The IC50 in the assay with M-NFS-60 cells (setting [2]) lay within 50 to 400 nM. Also, the “Kinase specificity S(10)” value in assay [1] (setting [3]) is listed as “A (A≤0.01)”.

On to `Fc1cnc2c(c1)ncn2Cc1ccc2nc(N[C@@H]3CCCC[C@@H]3Cl)sc2c1` [Example 219, N-((1R,2S)-2-chlorocyclohexyl)-6-((6-fluoro-3H-imidazo[4,5-b]pyridin-3-yl)methyl)benzo[d]thiazol-2-amine], for which the Kd at KIT (competition binding) is 100 to 500 nM; on PDGFRβ (competition binding), not above 50 nM; at CSF1R (competition binding) it was 5 to 20 nM. Moreover, the 50% inhibitory concentration (IC50) in the assay with M-NFS-60 cells (setting [2]) lay within 400 to 1500 nM. Also, in assay [1] (setting [3]), the “Kinase specificity S(10)” value was “B (0.01<B≤0.02)”.

Turning to `Nc1nccn(Cc2ccc3nc(N[C@@H]4CCCC[C@H]4O)sc3c2)c1=O` [Example 220, 3-amino-1-((2-(((1R,2R)-2-hydroxycyclohexyl)amino)benzo[d]thiazol-6-yl)methyl)pyrazin-2(1H)-one acetate salt], the Kd is more than 2000 nM at KIT (competition binding), 50 to 500 nM at PDGFRβ (competition binding) and 20 to 50 nM on CSF1R (competition binding). Besides, in the assay with M-NFS-60 cells (setting [2]), the IC50 was more than 1500 nM. Besides, the “Kinase specificity S(10)” value in assay [1] (setting [3]) is given as “A (A≤0.01)”.

For the molecule “either (1R,2R)-1-((6-((4-(1-methyl-1H-pyrazol-4-yl)-1H-imidazol-1-yl)methyl)benzo[d]thiazol-2-yl)amino)-2,3-dihydro-1H-inden-2-ol or (1R,2R)-1-((6-((5-(1-methyl-1H-pyrazol-4-yl)-1H-imidazol-1-yl)methyl)benzo[d]thiazol-2-yl)amino)-2,3-dihydro-1H-inden-2-ol [Example 83]”, the dissociation constant (Kd) at KIT was 500 to 2000 nM; on PDGFRβ it was 50 to 500 nM; on CSF1R it was not above 5 nM. Besides, the IC50 in the assay with M-NFS-60 cells (setting [4]) fell in the range of 50 to 400 nM. For the same molecule, in assay [1] (setting [5]), the “Kinase specificity S(10)” value is given as “A (A≤0.01)”.

Take “either (1R,2R)-2-((6-((3H-imidazo[4,5-b]pyridin-3-yl)methyl)benzo[d]thiazol-2-yl)amino)-1-methylcyclohexanol or (1S,2R)-2-((6-((3H-imidazo[4,5-b]pyridin-3-yl)methyl)benzo[d]thiazol-2-yl)amino)-1-methylcyclohexanol [Example 60]”: the Kd on KIT is 100 to 500 nM; at PDGFRβ, not above 50 nM; on CSF1R, 5 to 20 nM. For the same molecule, in the assay on M-NFS-60 cells (setting [4]), the concentration for half-maximal inhibition (IC50) fell in the range of 50 to 400 nM. For the same molecule, in assay [1] (setting [5]), the “Kinase specificity S(10)” value is “B (0.01<B≤0.02)”.

“either (1S,2R)-2-((6-((3H-imidazo[4,5-b]pyridin-3-yl)methyl)benzo[d]thiazol-2-yl)amino)-1-methylcyclohexanol or (1R,2R)-2-((6-((3H-imidazo[4,5-b]pyridin-3-yl)methyl)benzo[d]thiazol-2-yl)amino)-1-methylcyclohexanol [Example 59]”: the Kd fell in the range of 100 to 500 nM at KIT, 50 to 500 nM on PDGFRβ and 5 to 20 nM at CSF1R. Moreover, in the assay with M-NFS-60 cells (setting [4]), the IC50 was 50 to 400 nM. In addition, the “Kinase specificity S(10)” value in assay [1] (setting [5]) is recorded as “C (C>0.02)”.
